Among the test systems are SN12C; HOP-92; NCI-H522; SK-MEL-28; HOP-62; DLD-1; SNB-78; COLO 205; NCI-H226; U-251; HCT-15; 786-0; SF-295; KM12; SK-MEL-2; RXF 393; MCF7; Hs-578T; DU-145; MDA-N.
Common to all, as to assay: NCI anticancer screen, dose series, 48 h

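96-well plates; 48 h exposure; 5 concentrations. Endpoints by linear interpolation between flanking doses. Not reached: highest tested concentration assigned. Abbreviation: GI50, concentration required for 50% inhibition of growth.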 Activity calls are given as the source filed them. No stated cut-off is given here; in the data, active = GI50 up to about 1.1 µM and inactive = higher.

For `CN(C)CCONC(=O)C12CC3CC(CC(C3)C1)C2`, the GI50 with SN12C, with HOP-92, in the test with NCI-H522, in the test with SK-MEL-28, with HOP-62 and in the test with DLD-1 was > 100 µM (inactive) each time. The GI50 in the test with SNB-78 is 26.2 µM (inactive); with COLO 205, > 100 µM (inactive); in the test on NCI-H226 it was > 100 µM (inactive); with U-251, > 100 µM (inactive); with HCT-15, over 100 µM; in the test on 786-0, > 100 µM (inactive). Besides, the GI50 in the test on SF-295, with KM12, with SK-MEL-2 and with RXF 393 was > 100 µM (inactive) in each case.
Regarding `COc1cc(OC)c2c(c1)C(=O)C(CC(C)O)=CC2=O` (stereo not given), the GI50 was 18.7 µM (inactive) in the test on SN12C; 11.1 µM (inactive) in the test on HOP-92; 14.4 µM (inactive) in the test with NCI-H522; 17.7 µM (inactive) in the test on SK-MEL-28; 19.4 µM (inactive) with HOP-62; 13.7 µM (inactive) with DLD-1. The GI50 with SNB-78 was 15.3 µM (inactive); in the test with COLO 205, 18.6 µM (inactive); with NCI-H226 it was 20.8 µM (inactive); in the test on U-251, 17.9 µM (inactive); in the test with HCT-15, 14.6 µM; in the test with 786-0 it was 16.2 µM (inactive). The GI50 is 14.2 µM (inactive) in the test with SF-295, 19.5 µM (inactive) in the test with KM12, 19.7 µM (inactive) in the test with SK-MEL-2 and 12.7 µM (inactive) in the test with RXF 393.
`CCc1cccc(C(C)CC)c1/N=C(/NC(=O)c1ccccc1C(=O)N/C(=N/c1c(CC)cccc1C(C)CC)SC)SC` (stereo not given): the GI50 is 40.1 µM (inactive) in the test on SN12C; 10.5 µM (inactive) in the test on HOP-92; 28.2 µM (inactive) in the test with NCI-H522; 45 µM (inactive) in the test on SK-MEL-28; 31.1 µM (inactive) in the test on HOP-62; 58.5 µM (inactive) in the test on DLD-1. Further, the GI50 with SNB-78 was 21.5 µM (inactive); with COLO 205 it was 40.6 µM (inactive); in the test with NCI-H226, 17.7 µM (inactive); in the test on U-251, 26.2 µM (inactive); in the test on HCT-15 it was 40.1 µM; with 786-0 it was 49.3 µM (inactive). For the same compound, the GI50 in the test on SF-295 was 37.4 µM (inactive); with KM12, 36 µM (inactive); in the test on SK-MEL-2 it was 40.9 µM (inactive); with RXF 393, 35.5 µM (inactive).
`CCN1C(=O)C(=CN)C(=O)N(CC)C1=O`: the GI50 was > 100 µM (inactive) in the test on SN12C; 38.8 µM (inactive) in the test on HOP-92; > 100 µM (inactive) in the test on NCI-H522; > 100 µM (inactive) with SK-MEL-28; > 100 µM (inactive) with HOP-62; > 100 µM (inactive) in the test with DLD-1. Also, the GI50 is > 100 µM (inactive) with SNB-78; > 100 µM (inactive) with COLO 205; > 100 µM (inactive) in the test with NCI-H226; 10 µM (inactive) in the test with U-251; over 100 µM with HCT-15; > 100 µM (inactive) in the test with 786-0. The GI50 in the test with SF-295, in the test on KM12, with SK-MEL-2 and in the test with RXF 393 was > 100 µM (inactive) throughout.
Consider `CN1C(OCc2ccccc2)c2c(ccc3c2OCO3)C2C=Cc3cc4c(cc3C21)OCO4` (stereo not given), for which the GI50 with SN12C was 1.32 µM (inactive); in the test on HOP-92, 1.08 µM (active); with NCI-H522, 0.989 µM (active); in the test with SK-MEL-28 it was 0.455 µM (active); in the test with HOP-62, 1.58 µM (inactive); with DLD-1, 0.434 µM (active). Moreover, the GI50 in the test with SNB-78 was 0.598 µM (active); in the test with COLO 205 it was 1.02 µM (active); with NCI-H226, 1.47 µM (inactive); in the test on U-251, 1.51 µM (inactive); in the test on HCT-15, 0.597 µM; in the test with 786-0 it was 1.36 µM (inactive). Besides, the GI50 was 1.47 µM (inactive) in the test on SF-295, 1.01 µM (active) with KM12, 1.55 µM (inactive) with SK-MEL-2 and 1.1 µM (active) in the test with RXF 393.
`CC1=C(N2CC2)C(=O)c2nc3n(c2C1=O)CCC3OC(=O)CCl` (stereo not given): the GI50 in the test on SN12C was 0.0573 µM (active); in the test with HOP-92, 3.3 µM (inactive); with NCI-H522 it was 0.0274 µM (active); in the test on SK-MEL-28, 0.0555 µM (active); in the test on HOP-62, 0.0532 µM (active); in the test on DLD-1, 0.101 µM (active). Also, the GI50 in the test with SNB-78 was 0.193 µM (active); with MCF7, < 10 nM (active); in the test with COLO 205, 0.128 µM (active); in the test on Hs-578T it was 27.9 nM (active); in the test on NCI-H226 it was 0.064 µM (active); with U-251, 0.0252 µM (active). The GI50 in the test with HCT-15 was 0.0194 µM; with 786-0, 0.052 µM (active); with DU-145, 21 nM (active); in the test on SF-295, 0.0373 µM (active); in the test with KM12, 0.0377 µM (active); in the test with MDA-N, 22.2 nM (active). Further, the values for the GI50 in the test on SK-MEL-2 and in the test on RXF 393 were 0.0478 µM (active) and 0.0338 µM (active), respectively.
Regarding `CO[C@H]1Nc2c(ccc(C)c2O)C(=O)N2C=C(/C=C/C(N)=O)C[C@@H]12` [ANTHRAMYCIN METHYL ETHER], the GI50 was 0.0221 µM (active) in the test with SN12C; 0.0258 µM (active) in the test with HOP-92; 0.0222 µM (active) in the test with NCI-H522; 0.0299 µM (active) in the test on SK-MEL-28; 0.0186 µM (active) with HOP-62; 0.118 µM (active) with DLD-1. The GI50 was 0.0258 µM (active) with SNB-78; 38.9 nM (active) with MCF7; 0.0316 µM (active) in the test on COLO 205; 10.3 nM (active) in the test on Hs-578T; 0.128 µM (active) with NCI-H226; 0.0162 µM (active) in the test with U-251. Also, the GI50 was 0.0283 µM in the test with HCT-15; 0.0163 µM (active) in the test with 786-0; 37.7 nM (active) in the test on DU-145; 0.0199 µM (active) with SF-295; 0.0303 µM (active) in the test with KM12; 13.3 nM (active) in the test with MDA-N. Besides, the GI50 with SK-MEL-2 was 0.0151 µM (active); in the test on RXF 393, 0.0296 µM (active).

The record behind these values is ChEMBL document CHEMBL1201862, “PubChem BioAssay data set” (2004).
